Data reported in PMC11187217, “Anti-adhesive, anti-biofilm and fungicidal action of newly synthesized gemini quaternary ammonium salts” (Scientific Reports, 2024).
Like-named read-outs stand apart in the source and are kept apart here. Marks after values point to notes of the source that are not given here.

Legend:
[1] = Krafft point (TK) determination; assay type: physicochemical
Method: Elemental analysis was conducted utilizing Vario EL cube (Elementar, Germany) calibrated on acetanilide. Mass spectra were gain by electrospray ionization mass spectroscopy (ESI–MS) (micrOTOF-Q instrument; Bruker Daltonics, Germany). The ESI–MS aparatus was operated in the positive ion mode (calibrated with the Tunemix™ mixture; Bruker Daltonics; Germany), followed by spectra analysis by the DataAnalysis 3.4 software (Bruker Daltonics, Germany)—resolution of at least 5 ppm. Proton NMR and ^13C NMR measurements were performed on a Bruker AMX-500 spectrometer, utilizing CDCl3 or DMSO-d6 as a solvent. Proton and ^13C chemical shifts (given in ppm) were calibrated to TMS (δ = 0 ppm) as an internal reference. Krafft points were measured according to procedures described in our previous studies Lamch et al.,[82]. Values of CMC for all surfactants were measured utilizing the conductometric method for the compounds’ solutions in milliQ water in the same manner as described in Kula et al.. For all spectra: ^1H NMR, ^13C NMR and ESI–MS as well as appropriate comments see Electronic Supplementary Material.

Candida albicans 595/20 = assay: MIC/MFC, microdilution method (modified CLSI M27); assay type: cell-based; conditions: C. albicans 595/20 (clinical isolate), 28 °C
Method: (§1) Minimum inhibitory concentration (MIC) and minimum fungicidal concentration (MFC) values were determined based on the modified CLSI M27 protocol. The study was performed using the microdilution method on sterile 96-well titration plates. The S. cerevisiae Σ1278b ATCC 42800, S. cerevisiae BY4741 ATCC 201388, C. albicans ATCC 10231, C. albicans 595/20 and R. mucilaginosa ATCC 4056 were incubated for 18 h at 28 °C (without shaking), then centrifuged (1000 rcf, 5 min), and the obtained pellet was suspended in fresh YPG medium and optical density (OD) = 0.25–0.3 was determined at a wavelength (λ) of 590 nm. Next, 10 μl of selected compounds at appropriate final concentrations (5–1280 μM) were spotted into the wells of the titration plate. Then, 80 μl of YPG medium and 10 μl of culture with a fixed OD were added. All tests were performed in triplicate. The plate was incubated at 28 °C for 24 h. The YPG medium was a negative control, while the prepared culture not treated with compounds was a positive control. […] The minimum inhibitory concentration was determined at 90% growth inhibition.
(§2) In order to determine the MFC of selected gemini surfactants, 10 μl of culture was transferred to solid YPG medium from the wells of the titration plate in which MIC was observed and from wells with the compound with higher concentrations. The spotted suspensions were incubated at 28 °C for 24 h. After incubation, inhibition of the growth of microorganisms was observed.

[2] = tested on: Candida albicans ATCC 10231; assay: MIC/MFC, microdilution method (modified CLSI M27); assay type: cell-based; conditions: 28 °C; for Minimum inhibitory concentration (MIC) / Minimum fungicidal concentration (MFC*): C. albicans ATCC 10231, 24 h; for Minimum inhibitory concentration (MIC): 90% growth inhibition; for Minimum fungicidal concentration (MFC*): no growth on solid YPG
Method: as §1, §2

[3] = tested on: Rhodotorula mucilaginosa ATCC 4056; assay: MIC/MFC, microdilution method (modified CLSI M27); assay type: cell-based; conditions: R. mucilaginosa ATCC 4056, 28 °C, 24 h; for Minimum inhibitory concentration (MIC) / MIC: 90% growth inhibition, YPG; for MIC: read-out: Minimum inhibitory concentration (MIC)
Method: as §1, §2

[4] = tested on: Saccharomyces cerevisiae BY4741 ATCC 201388; assay: MIC/MFC, microdilution method (modified CLSI M27); assay type: cell-based; conditions: S. cerevisiae BY4741, 28 °C, 24 h; for MIC: 90% growth inhibition, YPG, read-out: Minimum inhibitory concentration (MIC); for Minimum fungicidal concentration (MFC*): no growth on solid YPG
Method: as §1, §2

[5] = tested on: Saccharomyces cerevisiae Σ1278b ATCC 42800; assay: MIC/MFC, microdilution method (modified CLSI M27); assay type: cell-based; conditions: S. cerevisiae Σ1278b, 28 °C, 24 h
Method: as §1, §2

C. albicans ATCC 10231 = assay: Filamentation of Candida albicans (DIC microscopy); assay type: cell-based; conditions: 24 h incubation, ½ MIC, 37 °C
Method: The culture of C. albicans ATCC 10231 was incubated in YPG medium at 28 °C for 18 h. Then the culture was centrifuged (1000 rcf, 5 min), and the resulting pellet was suspended in fresh YPG medium to obtain a culture with OD = 0.6. […] The formation of filaments was observed using a differential interference contrast microscope (Olympus BX50 DIC Microscope) after 12 and 24 h of exposure to selected surfactants on C. albicans cells. The control was a culture not exposed to gemini QAS. The experiment was performed based on a modification of the protocol of Obłąk et al. ^46.

[6] = tested on: S. cerevisiae Σ1278b ATCC 42800; assay: Cytotoxicity, alamarBlue (resazurin) assay on yeast cells; assay type: cell-based, Saccharomyces cerevisiae; conditions: ¼ and ½ MIC
Method: To determine the cytotoxicity of the tested gemini QAS on yeast cells, an experiment was performed using the alamarBlue colorimetric assay to determine the metabolic activity of cells, using the modified alamarBlue Cell Viability Assay Reagent method. Enzymes of the electron transport system reduce the blue resazurin solution to resorufin, which is fluorescent pink.
The yeast culture S. cerevisiae Σ1278b was incubated at 28 °C for 16 h with shaking (100 rpm), centrifuged (1000 rcf, 5 min) and the optical density was obtained, OD = 1.0, λ = 590 nm. On a 96-well titration plate we spotted 160 μl of YPG medium, 20 μl of yeast culture and the tested gemini QAS at final concentrations of ½ and ¼ MIC. The negative control was YPG medium with resazurin solution, and the positive control was resazurin solution with yeast culture. The plates were incubated at 28 °C for 12 h. Then, 20 μl of resazurin solution (alamarBlue) was added to the wells and the plate was incubated for 4 h in the dark. After incubation, the absorbance was measured at λ = 570 nm and λ = 600 nm and the color change of the wells from blue to pink was observed. The experiment was performed in 3 repetitions.

[7] = tested on: Salmonella Typhimurium TA100; conditions: for Number of colonies: ± SD
Method: The mutagenic potential of the tested gemini QAS was determined using the Ames test[83] using Salmonella Typhimurium TA98 and Salmonella Typhimurium TA100 with defects in histidine biosynthesis. The culture of S. Typhimurium TA98 and S. Typhimurium TA100 was incubated with shaking at 37 °C for 18 h, centrifuged (3000 rpm, 5 min) and OD = 1.5 was determined, at a wavelength of λ = 590 nm. The agar was dissolved and cooled to 42 °C. […] The media were incubated for 48 h at 37 °C. The positive control for the S. Typhimurium TA98 strain was acriflavin (100 μg/ml), and for the S. Typhimurium TA100 strain, sodium azide (15 μg/ml). The negative control was the culture without tested compound and with NaCl (0,9%). After incubation, the colonies were counted and the mutagenicity index (MR) was determined—the ratio of the number of revertants resulting from the mutagenic effect of the tested compound to the number of spontaneous revertants. Experiment was performed in three repetitions.

[8] = 90% growth inhibition, YPG, 24 h
[9] = no growth on solid YPG, read-out: Minimum fungicidal concentration (MFC*)

Structure (SMILES)	TK (Krafft point) [1]	Minimum inhibitory concentration (MIC) (Candida albicans 595/20; [8])	Minimum fungicidal concentration (MFC*) (Candida albicans 595/20; no growth on solid YPG, 24 h)	Minimum inhibitory concentration (MIC) ([2]; YPG)	Minimum fungicidal concentration (MFC*) [2]	Minimum inhibitory concentration (MIC) [3]	Minimum fungicidal concentration (MFC*) ([3]; no growth on solid YPG)	MIC [4] [µM]	Minimum fungicidal concentration (MFC*) [4] [µM]	Minimum inhibitory concentration (MIC) ([5]; 90% growth inhibition, YPG)	Minimum fungicidal concentration (MFC*) ([5]; no growth on solid YPG)	Effect on production of filaments by C. albicans (C. albicans ATCC 10231)	Cytotoxic potential towards mitochondrial metabolism of S. cerevisiae Σ1278b cells [6]	Mutagenicity ratio (MR) ([7]; TA100, ¼ MIC)	Number of colonies ([7]; TA100, ¼ MIC)	Mutagenicity ratio (MR) ([7]; TA100, ½ MIC)	Number of colonies ([7]; TA100, ½ MIC)	MIC [3] [µM]	also measured
CCCCCCCCCCCCCCCC(=O)N(CCCN(CCC[N+](C)(C)C)C(=O)CCCCCCCCCCCCCCC)CCC[N+](C)(C)C [2xC16MeCO3G3, dimethyl{{3-[N-(3-{N-[3-(dimethylammonium)propyl]hexadecylamido}propyl}hexadecylamido}propyl}}ammonium dimethylcarbonate]	~ 5 °C	> 1280 > 1280* µM	> 1280 > 1280* µM	> 1280 > 1280* µM	> 1280 > 1280* µM	640 640* µM	640 640* µM	640	1280	> 1280 > 1280* µM	> 1280 > 1280* µM	significantly reduced their number	did not have cytotoxic potential	1.43	398.0 ± 2.83	1.76	490.5 ± 3.54	–	–
CCCCCCCCCCCCCCCC(=O)N(CCCN(CCC[N+](C)(C)C)C(=O)CCCCCCCCCCCCCCC)CCC[N+](C)(C)C [2xC16LaG3]	< 0 °C	> 1280 > 1280* µM	> 1280 > 1280* µM	> 1280 > 1280* µM	> 1280 > 1280* µM	–	–	640	> 1280	> 1280 > 1280* µM	> 1280 > 1280* µM	strongly prevented the formation of filaments	did not have cytotoxic potential	0.99	197.7 ± 1.53	1.06	213.0 ± 4.24	80	MFC [3, 9]: 640 µM
CCCCCCCCCCCC(=O)N(CCCN(CCC[N+](C)(C)C)C(=O)CCCCCCCCCCC)CCC[N+](C)(C)C [2xC12BrG3]	< 0 °C	–	–	–	–	10 10* µM	10 10* µM	20	320	–	–	–	did not have cytotoxic potential	0.95	265.0 ± 7.07	1.23	308.3 ± 6.87	10	MIC (Candida albicans 595/20; Candida albicans, 595/20, 24 h, 90% growth inhibition, YPG, read-out: Minimum inhibitory concentration (MIC)): 1280 µM; MFC (Candida albicans 595/20; Candida albicans, no growth on solid YPG, 24 h, read-out: Minimum fungicidal concentration (MFC*)): > 1280 µM; MIC ([2]; Candida albicans, ATCC10231, 24 h, C. albicans ATCC 10231, 90% growth inhibition, YPG, read-out: Minimum inhibitory concentration (MIC)): 640 µM; MFC ([2]; Candida albicans, ATCC10231, 24 h, C. albicans ATCC 10231, no growth on solid YPG, read-out: Minimum fungicidal concentration (MFC*)): 640 µM; MIC ([5]; 90% growth inhibition, YPG, read-out: Minimum inhibitory concentration (MIC)): 240 µM; MFC [5, 9]: 320 µM; Effect on production of filaments by C. albicans (C. albicans ATCC 10231; listed as Dibromides with 12-carbon hydrophobic chains): completely inhibits filament formation and cell growth
